Experimental data published in patent US11931429B2, “Chemiluminescent probes for diagnostics and in vivo imaging” (RAMOT AT TEL-AVIV UNIVERSITY LTD., priority 2016, dated 2024).
“Also recorded” adds a separate entry of the source.

What was measured:
[1] = Absorbance and fluorescence of phenol-benzoate derivatives in PBS 7.4; format: physicochemical; conditions: for λ maxem [nm] / λ maxex [nm] / ΦFluorescence / ε 400 nm: PBS 7.4; for Relative fluorescence emission: PBS 7.4, relative to 6a; for fluorescence emission intensity relative to parent benzoate without chlorine: 7a vs 6a, 9a vs 8a
Method: General. […] Fluorescence quantum yield was determined using Hamamatsu Quantaurus-QY.
To evaluate the substituent effect, numerous phenol-benzoate derivatives with acceptor substituents at ortho and para positions of the phenol were synthesized, and their fluorescent emission in PBS 7.4 were measured. The most significant effect was obtained when an acceptor was incorporated at the ortho position of the phenol. Following broad screen of electron-withdrawing groups, we chose to focus on the chlorine, methyl-acrylate and acrylonitrile substituents. It was previously shown that in order to enable the chemiexcitation mechanism under physiological conditions, a chlorine substituent is introduced at the ortho position of phenolic ring. This electron-withdrawing substituent decreases the pKa of the phenol released after cleavage of the protecting group and thereby enriches the relative concertation of the phenolate species in physiological pH. The methyl-acrylate and acrylonitrile substituents induced the highest increase in fluorescence emission of their corresponded phenol-benzoates. The absorbance and fluorescence spectra of selected phenol-benzoate derivatives are shown in FIG. 11, and their molecular structure and spectroscopic parameters are summarized Table 9.

[2] = Chemiluminescence of adamantylidene-dioxetane luminophores 5b-9b in PBS 7.4; format: physicochemical; conditions: for λ maxCL [nm] / chemiluminescence emission signal relative to dioxetane 5b: PBS 7.4; for ΦCL(H20) %: aqueous, 5b as reference; for Relative CL emission: relative to 5b; for chemiluminescence emission signal upon deprotonation: water / PBS 7.4
[3] = test system: β-galactosidase; conditions: 1 μM, 1.5 units/mL β-galactosidase; for chemiluminescence emission signal relative to Probe 5: PBS pH 7.4 (10% DMSO), room temp
Method: Next, we measured the light chemiluminescence emission of the probes, as a function of time, in the presence and in the absence of β-galactosidase.
Commercially available Emerald-II™ enhancer (10%) was added to Probe 5 in the presence of β-galactosidase (in PBS 7.4) and its chemiluminescence emission was compared to that of Probe 6.

Compound | λ maxem [nm] [1] | λ maxex [nm] [1] | Relative fluorescence emission [1] | λ maxCL [nm] [2] | ΦCL(H20) % [2] | Relative CL emission [2] | chemiluminescence emission signal upon deprotonation [2] | ΦFluorescence [1] | ε 400 nm [1] | other results
COC(=O)c1cccc(O)c1Cl [Benzoate 5a, reference compound] | 470 nm | 290 nm | do not present any measurable fluorescence; also recorded: Negligible | – | – | – | – | – | – | –
COC(=O)/C=C/c1ccc(C2(OC)OOC23C2CC4CC(C2)CC3C4)c(Cl)c1O (stereo not shown) [Phenol 7b] | – | – | – | 540 nm | 2.5% | 780 | remarkably strong chemiluminescence emission signal | – | – | –
COC(=O)/C=C/c1ccc(C2(OC)OOC23C2CC4CC(C2)CC3C4)cc1OCc1ccc(O[C@@H]2OC(CO)[C@H](O)C(O)C2O)cc1 (stereo partly shown) [Probe 6] | – | – | – | – | – | – | – | – | – | chemiluminescence emission signal relative to Probe 5 [3]: about 500 fold
COC(=O)c1ccc(/C=C/C#N)c(O)c1 [Benzoate 8a] | 525 nm | 400 nm | 4.7 | – | – | – | – | 7% | 2200 | –
COC(=O)/C=C/c1ccc(C(=O)OC)cc1O [Benzoate 6a] | 550 nm | 400 nm | 1 | – | – | – | – | 0.5% | 1200 | –
COC(=O)c1ccc(/C=C/C#N)c(O)c1Cl [Benzoate 9a] | 525 nm | 400 nm | 18.0 | – | – | – | – | 29.8% | 7700 | fluorescence emission intensity relative to parent benzoate without chlorine [1]: about 4 fold
COC1(c2ccc(/C=C/C#N)c(O)c2)OOC12C1CC3CC(C1)CC2C3 (stereo not shown) [Phenol 8b] | – | – | – | 525 nm | 7.4% | 2295 | remarkably strong chemiluminescence emission signal | – | – | –
COC(=O)c1cccc(O)c1 [Benzoate 4a, reference compound] | 470 nm | 290 nm | do not present any measurable fluorescence; also recorded: negligible | – | – | – | – | – | – | –
COC1(c2ccc(/C=C/C#N)c(O)c2Cl)OOC12C1CC3CC(C1)CC2C3 (stereo not shown) [Phenol 9b] | – | – | – | 525 nm | 9.8% | 3043 | remarkably strong chemiluminescence emission signal | – | – | chemiluminescence emission signal relative to dioxetane 5b [2]: about 3000 fold
COC(=O)/C=C/c1ccc(C2(OC)OOC23C2CC4CC(C2)CC3C4)cc1O (stereo not shown) [Phenol 6b] | – | – | – | 540 nm | 2.3% | 724 | remarkably strong chemiluminescence emission signal | – | – | chemiluminescence emission signal relative to dioxetane 5b [2]: about 700 fold
COC(=O)/C=C/c1ccc(C(=O)OC)c(Cl)c1O [Benzoate 7a] | 550 nm | 400 nm | 10.6 | – | – | – | – | 5.2% | 7400 | fluorescence emission intensity relative to parent benzoate without chlorine [1]: about 10 fold
COC1(c2ccc(/C=C/C#N)c(OCc3ccc(O[C@@H]4OC(CO)[C@H](O)C(O)C4O)cc3)c2Cl)OOC12C1CC3CC(C1)CC2C3 (stereo partly shown) [Probe 9] | – | – | – | – | – | – | – | – | – | chemiluminescence emission signal relative to Probe 5 with Emerald-II™ enhancer ([3]; PBS 7.4 (10% DMSO)): more than 8 fold; chemiluminescence emission signal relative to Probe 5 [3]: about 1800 fold
